Laboratory results: patent publication US20250360105A1, “USE OF ERGOTHIONEINE FOR ANTI-AGING” (NANJING NUTRABUILDING BIO-TECH CO., LTD., priority 2022, published 2025)

Experiments:
progerin = experiment: Taqman quantitative real-time PCR of progerin mRNA in coronary artery endothelial cells of aging mice; type: in vivo; conditions: 56-week-old mice treated with EGT every day, compared to without EGT treated; FIG. 1
Protocol: (§1) 18 […]/6 male mice aged about 8 weeks, were randomly assigned to three study groups (GA, GB, GC). The total experimental time was 56 weeks, and the control group was consisted of 12 animals, and all of the animals were maintained in an animal facility room under controlled environmental conditions (22±1° C., 12 h-light/12 h dark cycle, free access to food and water). All procedures were carried out in accordance with institutional policies on experimental animal handling. Treatment details of the individual study groups were: Group A (GA): euthanized at the age of 10 weeks; Group B (GB): euthanized at the age of 56 weeks without EGT treated; Group C (GC): euthanized at the age of 56 weeks with EGT treated every day. For all the euthanized mice, formalin-fixed paraffin embedded 3 μm sections were prepared from the tissues of coronary artery, and were snap-frozen and stored at -80° C. Taqman quantitative real-time PCR was used for detection of progerin mRNA. Messenger RNA was extracted using RNeasy Mini Kit Plus (Qiagen, Valencia, CA). The Taqman probe was as described by Rodriguez et al. (Rodriguez, S., et al., Increased expression of the Hutchinson Gilford progeria syndrome truncated lamin A transcript during cell aging. 2009. 17(7): p. 928-937). The forward primer was [NT] ID NO: 1), and the reverse primer was [NT] ID NO: 2).

lamin A = experiment: Taqman quantitative real-time PCR of lamin A mRNA in coronary artery endothelial cells of aging mice; type: in vivo; conditions: 56-week-old mice treated with EGT every day, compared to without EGT treated; FIG. 1
Protocol: as §1

lamin C = experiment: Taqman quantitative real-time PCR of lamin C mRNA in coronary artery endothelial cells of aging mice; type: in vivo; conditions: 56-week-old mice treated with EGT every day, compared to without EGT treated; FIG. 1
[1] = test system: pro-inflammatory cytokines IL-1α, IL-1β, IL-6, and TNF-α; experiment: Quantification of pro-inflammatory cytokines in serum of aging mice using ELISA Array kit; type: in vivo; conditions: serum of 56-week-old mice, EGT compared to without EGT treatment, FIG. 2
Protocol: 18 […]/6 male mice aged about 8 weeks, were randomly assigned to three study groups (GA, GB, GC). The total experimental time was 56 weeks, and the control group was consisted of 12 animals, and all of the animals were maintained in an animal facility room under controlled environmental conditions (22±1° C., 12 h-light/12 h dark cycle, free access to food and water). All procedures were carried out in accordance with institutional policies on experimental animal handling. Treatment details of the individual study groups were: Group A (GA): euthanized at the age of 10 weeks; Group B (GB): euthanized at the age of 56 weeks without EGT treated; Group C (GC): euthanized at the age of 56 weeks with EGT treated every day.

[2] = test system: vascular and intracellular adhesion molecules in endothelial cells; conditions: Anticoli et al. 2010; cited from earlier work

C[N+](C)(C)[C@@H](Cc1c[nH]c(=S)[nH]1)C(=O)[O-] [EGT, Ergothioneine]
mRNA expression of progerin in coronary artery endothelial cells (progerin): obvious decrease
mRNA of lamin A in coronary artery endothelial cells (lamin A): decrease
mRNA of lamin C in coronary artery endothelial cells (lamin C): decrease
pro-inflammatory cytokines (IL-1α, IL-1β, IL-6, TNF-α) [1]: obvious decrease
IL-1β-induced expression of vascular and intracellular adhesion molecules [2]: inhibit
